pIC50: −log10 of the molar value.
The compounds below were run against T1, Endothelial lipase (EL) (Homo sapiens, UniProt Q9Y5X9) (assay: Endothelial lipase (EL) enzymatic assay with fluorescent substrate A10070 in DMPG vesicles). Details: conditioned media from HT-1080 cells overexpressing endogenous EL; 20 min preincubation at 37° C.; read-out: EL IC50.
T1 construct: HT-1080 cells, which were transformed by RAGE technology (Athersys) to overexpress endogenous EL; endogenous in cells; conditioned medium used as the enzyme source
T1 sequence (Q9Y5X9 21-500): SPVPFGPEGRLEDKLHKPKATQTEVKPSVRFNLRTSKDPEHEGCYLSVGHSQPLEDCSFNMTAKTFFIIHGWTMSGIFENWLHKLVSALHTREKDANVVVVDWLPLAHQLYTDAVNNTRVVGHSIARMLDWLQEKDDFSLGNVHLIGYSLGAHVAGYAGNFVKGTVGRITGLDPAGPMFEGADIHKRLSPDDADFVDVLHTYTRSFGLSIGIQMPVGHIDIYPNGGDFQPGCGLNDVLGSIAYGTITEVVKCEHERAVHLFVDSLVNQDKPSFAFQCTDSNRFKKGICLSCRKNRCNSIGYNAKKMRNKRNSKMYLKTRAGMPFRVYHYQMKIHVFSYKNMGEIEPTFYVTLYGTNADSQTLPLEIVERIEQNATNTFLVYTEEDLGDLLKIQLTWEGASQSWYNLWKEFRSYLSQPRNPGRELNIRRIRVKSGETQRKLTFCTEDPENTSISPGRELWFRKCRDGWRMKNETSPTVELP
Format: biochemical
Procedure: Endothelial lipase activity was measured using a fluorescent substrate, A10070, (Invitrogen, CA) doped into an artificial vesicle containing DMPG (Avanti Polar Lipids) as the excipient. Vesicles were prepared by combining 285 μL of 1 mM DMPG in a 1:1 mixture of MeOH and CHCl3 with 15 μL of 1 mM A10070 in a 1:1 mixture of MeOH and CHCl3. The mixture was dried under nitrogen and resuspended in 150 μL of 50 mM HEPES pH 8.0 buffer containing 100 mM NaCl and 0.2 mM EDTA. The sample was allowed to sit at rt for 15 min and then was sonicated 3×4 mins on ice with a Branson Sonicator using duty cycle 1. This preparation provides vesicles with a mole fraction of 0.05 for the FRET substrate.
The enzymatic assay was measured using white, opaque 96-well half area plates. Each well contained 60 μL of assay buffer (50 mM HEPES pH 8.0, 50 mM NaCl and 1 mM CaCl2) and 2 ul of a DMSO solution containing compound of interest. Conditioned media obtained from HT-1080 cells, which were transformed by RAGE technology (Athersys) to overexpress endogenous EL, was added and the reaction was allowed to incubate for 20 min at 37° C. with gentle agitation. The reaction was started by the addition of 20 μL of a 1:4 dilution of vesicles. The final total reaction volume was 100 μL. The reaction rates were measured on a Gemini plate reader with an excitation wavelength of 488 nm and an emission of 530 nm. Readings were taken every 20 seconds for 10 min with agitation between each reading. The slope of the linear portion of the readout was used to calculate the rate of the reaction.
For `Nc1c(C(=O)NC2CCCC(c3cnn(Cc4ccccc4)c3)C2)[nH]c(=O)[nH]c1=O` (centres unmarked) [Example 127, 5-amino-N-(3-(1-benzyl-1H-pyrazol-4-yl)cyclohexyl)-2,6-dioxo-1,2,3,6-tetrahydropyrimidine-4-carboxamide], the pIC50 was 7.52. `Nc1c(C(=O)NC2CCCc3ccsc32)[nH]c(=O)[nH]c1=O` (centres unmarked) [Example 46, 5-amino-2,6-dioxo-N-(4,5,6,7-tetrahydrobenzo[b]thiophen-7-yl)-1,2,3,6-tetrahydropyrimidine-4-carboxamide] showed a pIC50 of 5.48. Compound `Nc1c(C(=O)NC2CCN(C(=O)Nc3ccc(C(F)(F)F)cc3)c3ccccc32)[nH]c(=O)[nH]c1=O` (centres unmarked) [Example 26, 4-(5-amino-2,6-dioxo-1,2,3,6-tetrahydropyrimidine-4-carboxamido)-N-(4-(trifluoromethyl)phenyl)-3,4-dihydroquinoline-1(2H)-carboxamide] has a pIC50 of 5.01.

Same assay, conditions: range observed in the EL assay; read-out: EL IC50 values
With `CC(C)(C)COc1ccc(C2CCC(NC(=O)c3[nH]c(=O)[nH]c(=O)c3O)C2)cc1` (centres unmarked) [Example 293, 5-hydroxy-N-(3-(4-(neopentyloxy)phenyl)cyclopentyl)-2,6-dioxo-1,2,3,6-tetrahydropyrimidine-4-carboxamide] the pIC50 was no less than 5.00. For `Nc1c(C(=O)N[C@@H]2CCCc3c(CCc4ccccc4)cccc32)[nH]c(=O)[nH]c1=O` [Example 111, (R)-5-amino-2,6-dioxo-N-(5-phenethyl-1,2,3,4-tetrahydronaphthalen-1-yl)-1,2,3,6-tetrahydropyrimidine-4-carboxamide], the pIC50 was no less than 5.00. `Nc1c(C(=O)N[C@@H]2CC[C@@H](C(=O)NCc3nc4ccccc4s3)C2)[nH]c(=O)[nH]c1=O` [Example 148, 5-amino-N-((1R,3R)-3-(benzo[d]thiazol-2-ylmethylcarbamoyl)cyclopentyl)-2,6-dioxo-1,2,3,6-tetrahydropyrimidine-4-carboxamide] gave a pIC50 of no less than 5.00. Work on `Cn1nc(C(F)(F)F)cc1-c1ccc([C@H]2CC[C@@H](NC(=O)c3[nH]c(=O)[nH]c(=O)c3N)C2)cc1` [Example 173, 5-amino-N-((1R,3S)-3-(4-(1-methyl-3-(trifluoromethyl)-1H-pyrazol-5-yl)phenyl)cyclopentyl)-2,6-dioxo-1,2,3,6-tetrahydropyrimidine-4-carboxamide] yielded a pIC50 of no less than 5.00. With `COc1cccc2c1CCC[C@H]2NC(=O)c1[nH]c(=O)[nH]c(=O)c1N` [Example 103, (R)-5-amino-N-(5-methoxy-1,2,3,4-tetrahydronaphthalen-1-yl)-2,6-dioxo-1,2,3,6-tetrahydropyrimidine-4-carboxamide] the pIC50 was no less than 5.00. With `O=C(N[C@H]1CC[C@@H](c2ccccc2)CC1)c1[nH]c(=O)[nH]c(=O)c1NCc1cccc(C(F)(F)F)c1` [Example 222, 2,6-dioxo-N-(cis-4-phenylcyclohexyl)-5-(3-(trifluoromethyl)benzylamino)-1,2,3,6-tetrahydropyrimidine-4-carboxamide] the pIC50 was no less than 5.00. `O=C(N[C@@H]1CCCc2ccccc21)c1[nH]c(=O)[nH]c(=O)c1O` [Example 276, (R)-5-hydroxy-2,6-dioxo-N-(1,2,3,4-tetrahydronaphthalen-1-yl)-1,2,3,6-tetrahydropyrimidine-4-carboxamide] was tested, and the pIC50 was no less than 5.00. For `COc1ccc(-c2ccc([C@@H]3CC[C@H](NC(=O)c4[nH]c(=O)[nH]c(=O)c4N)C3)cc2)cc1` [Example 168, 5-amino-N-((1S,3R)-3-(4′-methoxybiphenyl-4-yl)cyclopentyl)-2,6-dioxo-1,2,3,6-tetrahydropyrimidine-4-carboxamide], the pIC50 was no less than 5.00. Compound `COc1ccc([C@@H]2CC[C@H](NC(=O)c3[nH]c(=O)[nH]c(=O)c3N)C2)cn1` [Example 79, 5-amino-N-((1S,3R)-3-(6-methoxypyridin-3-yl)cyclopentyl)-2,6-dioxo-1,2,3,6-tetrahydropyrimidine-4-carboxamide] has a pIC50 of no less than 5.00. For `COc1cc(C)c(OC)c2c1CC(NC(=O)c1[nH]c(=O)[nH]c(=O)c1N)CC2` (centres unmarked) [Example 109, 5-amino-N-(5,8-dimethoxy-6-methyl-1,2,3,4-tetrahydronaphthalen-2-yl)-2,6-dioxo-1,2,3,6-tetrahydropyrimidine-4-carboxamide], the pIC50 was no less than 5.00. `Nc1c(C(=O)NC2CCCC(c3cnn(Cc4ccccc4)c3)C2)[nH]c(=O)[nH]c1=O` (centres unmarked) [Example 127, 5-amino-N-(3-(1-benzyl-1H-pyrazol-4-yl)cyclohexyl)-2,6-dioxo-1,2,3,6-tetrahydropyrimidine-4-carboxamide] was tested, and the pIC50 was no less than 5.00. Work on `COC(=O)C1CCCCC1NC(=O)c1[nH]c(=O)[nH]c(=O)c1N` (centres unmarked) [Example 56, methyl 2-(5-amino-2,6-dioxo-1,2,3,6-tetrahydropyrimidine-4-carboxamido) cyclohexanecarboxylate] yielded a pIC50 of no less than 5.00. Work on `COc1ccc2c(c1)CC[C@H]2NC(=O)c1[nH]c(=O)[nH]c(=O)c1N` [Example 70, (R)-5-amino-N-(5-methoxy-2,3-dihydro-1H-inden-1-yl)-2,6-dioxo-1,2,3,6-tetrahydropyrimidine-4-carboxamide] yielded a pIC50 of no less than 5.00. With `Nc1c(C(=O)N[C@@H]2CCCc3cc(NC(=O)c4ccccc4)ccc32)[nH]c(=O)[nH]c1=O` [Example 105, (R)-5-amino-N-(6-benzamido-1,2,3,4-tetrahydronaphthalen-1-yl)-2,6-dioxo-1,2,3,6-tetrahydropyrimidine-4-carboxamide] the pIC50 was no less than 5.00. Compound `Nc1c(C(=O)NC2CCCc3ccsc32)[nH]c(=O)[nH]c1=O` (centres unmarked) [Example 46, 5-amino-2,6-dioxo-N-(4,5,6,7-tetrahydrobenzo[b]thiophen-7-yl)-1,2,3,6-tetrahydropyrimidine-4-carboxamide] has a pIC50 of no less than 5.00. In the case of `Nc1c(C(=O)N[C@H]2CC[C@@H](c3ccc(-c4cnn(Cc5ccccc5)c4)cc3)C2)[nH]c(=O)[nH]c1=O` (stereo in doubt) [Example 179, 5-amino-N-((1S,3R)-3-(4-(1-benzyl-1H-pyrazol-4-yl)phenyl)cyclopentyl)-2,6-dioxo-1,2,3,6-tetrahydropyrimidine-4-carboxamide], the pIC50 was no less than 5.00. Work on `COc1ccc2c(c1)[C@H](NC(=O)c1[nH]c(=O)[nH]c(=O)c1O)CCC2` [Example 264, (R)-5-hydroxy-N-(7-methoxy-1,2,3,4-tetrahydronaphthalen-1-yl)-2,6-dioxo-1,2,3,6-tetrahydropyrimidine-4-carboxamide] yielded a pIC50 of no less than 5.00. `COC(=O)C1CCCC(NC(=O)c2[nH]c(=O)[nH]c(=O)c2N)C1` (centres unmarked) [Example 58, methyl 3-(5-amino-2,6-dioxo-1,2,3,6-tetrahydropyrimidine-4-carboxamido) cyclohexanecarboxylate] showed a pIC50 of no less than 5.00. Work on `COc1cccc2c1C(NC(=O)c1[nH]c(=O)[nH]c(=O)c1N)CCC2` (centres unmarked) [Example 66, 5-amino-N-(8-methoxy-1,2,3,4-tetrahydronaphthalen-1-yl)-2,6-dioxo-1,2,3,6-tetrahydropyrimidine-4-carboxamide] yielded a pIC50 of no less than 5.00. In the case of `Nc1c(C(=O)NC2CCN(C(=O)Nc3ccc(C(F)(F)F)cc3)c3ccccc32)[nH]c(=O)[nH]c1=O` (centres unmarked) [Example 26, 4-(5-amino-2,6-dioxo-1,2,3,6-tetrahydropyrimidine-4-carboxamido)-N-(4-(trifluoromethyl)phenyl)-3,4-dihydroquinoline-1(2H)-carboxamide], the pIC50 was no less than 5.00. `Nc1c(C(=O)N[C@@H]2CCc3c(OCc4ccccc4)cccc32)[nH]c(=O)[nH]c1=O` [Example 86, (R)-5-ammo-N-(4-(benzyloxy)-2,3-dihydro-1H-inden-1-yl)-2,6-dioxo-1,2,3,6-tetrahydropyrimidine-4-carboxamide] showed a pIC50 of no less than 5.00. With `O=C(Cn1c(=O)[nH]c(C(=O)N[C@H]2CC[C@@H](c3ccccc3)CC2)c(O)c1=O)N[C@H]1CC[C@@H](c2ccccc2)CC1` [Example 268, 5-Hydroxy-2,6-dioxo-1-(2-oxo-2-((cis-4-phenylcyclohexyl)amino)ethyl)-N-(cis-4-phenylcyclohexyl)-1,2,3,6-tetrahydropyrimidine-4-carboxamide] the pIC50 was no less than 5.00. For `Nc1c(C(=O)N[C@@H]2CCCc3c(-c4ccccc4)cccc32)[nH]c(=O)[nH]c1=O` [Example 112, (R)-5-amino-2,6-dioxo-N-(5-phenyl-1,2,3,4-tetrahydronaphthalen-1-yl)-1,2,3,6-tetrahydropyrimidine-4-carboxamide], the pIC50 was no less than 5.00.

From patent US9199946B2, “Pyrimidinone carboxamide inhibitors of endothelial lipase” (BRISTOL-MYERS SQUIBB COMPANY, priority 2012, dated 2015)
